Measurements as given in ChEMBL document CHEMBL5236668, “Synthesis and biological evaluation of novel SN38-glucose conjugate for colorectal cancer treatment” (Bioorg Med Chem Lett, 2023).
Converted amounts (≈) assume the structure as drawn. The source made the active and inactive calls. The rule behind the calls is not given here.

How the values were obtained:
SW480 [1] = assay: Induction of apoptosis in human SW480 cells assessed as early apoptotic cells at 25 uM by Annexin V-FITC staining based flow cytometry (reference value: 2.53 %); format: functional
[2] = Toxicity in nude mouse xenografted with human SW480 cells assessed as effect on MCV level at 0.016 mmol/Kg, iv administered at 3 days intervals for 21 days by routine blood test; format: organism-based; conditions: in vivo, 504 h, time 21 day
[3] = Toxicity in nude mouse xenografted with human SW480 cells assessed as effect on hemoglobin level at 0.016 mmol/Kg, iv administered at 3 days intervals for 21 days by routine blood test; format: organism-based; conditions: in vivo, 504 h, time 21 day
[4] = Toxicity in nude mouse xenografted with human SW480 cells assessed as effect on RBC level at 0.016 mmol/Kg, iv administered at 3 days intervals for 21 days by routine blood test; format: organism-based, Erythrocyte; conditions: in vivo, 504 h, time 21 day
HCT-116 [5] = assay: Inhibition of cell invasion in human HCT-116 cells by Boyden chamber invasion assay; format: functional, cell-based; conditions: dose 5-50 µM
SW480 [6] = assay: Induction of apoptosis in human SW480 cells assessed as late apoptotic cells at 25 uM by Annexin V-FITC staining based flow cytometry (reference value: 5.12 %); format: functional
HCT-116 [7] = assay: Induction of apoptosis in human HCT-116 cells assessed as blue chromatin condensation by Hoechst 33258 staining based analysis; format: functional, cell-based
HCT-116 [8] = assay: Induction of apoptosis in human HCT-116 cells assessed as necrotic cells at 25 uM by Annexin V-FITC staining based flow cytometry (reference value: 0.73 %); format: functional
HCT-116 [9] = assay: Anticancer activity against human HCT-116 cells assessed as inhibition of cell growth by MTT assay; format: functional, cell-based
HCT-116 [10] = assay: Induction of apoptosis in human HCT-116 cells assessed as appearance of paired apoptotic vesicles around the nucleus by Hoechst 33258 staining based analysis; format: functional, cell-based
[11] = Toxicity in nude mouse xenografted with human SW480 cells assessed as effect on PDW at 0.016 mmol/Kg, iv administered at 3 days intervals for 21 days by routine blood test; format: organism-based; conditions: in vivo, 504 h, time 21 day
SW480 [12] = assay: Induction of apoptosis in human SW480 cells assessed as necrotic cells at 25 uM by Annexin V-FITC staining based flow cytometry (reference value: 3.05 %); format: functional
SW480 [13] = assay: Antitumor activity against human SW480 cells xenografted in iv dosed mouse assessed as reduction in tumor volume administered at 3 days intervals for 21 days; format: functional, organism-based; conditions: dose 0.008-0.016 mmol/Kg, time 21.0 day
SW480 [14] = assay: Antimigratory activity against human SW480 cells assessed as inhibition of cell migration by wound healing assay relative to control; format: functional; parameters: scale not given: the % may be the effect or the level left
[15] = Toxicity in nude mouse xenografted with human SW480 cells assessed as effect on WBC level at 0.016 mmol/Kg, iv administered at 3 days intervals for 21 days by routine blood test; format: organism-based; conditions: in vivo, 504 h, time 21 day
HCT-116 [16] = assay: Induction of apoptosis in human HCT-116 cells assessed as appearance of wrinkled and round cells by Hoechst 33258 staining based analysis; format: functional, cell-based
[17] = Selectivity index, ratio of IC50 for cytotoxicity against human L02 cells to IC50 for anticancer activity against human SW480 cells; format: toxicity, cell-based; conditions: L02 cells and SW480 cells, read-out: Ratio IC50
[18] = Selectivity index, ratio of IC50 for cytotoxicity against human L02 cells to IC50 for anticancer activity against human HCT-116 cells; format: toxicity, cell-based; conditions: L02 cells and HCT-116 cells, read-out: Ratio IC50
SW480 [19] = assay: Antitumor activity against human SW480 cells xenografted in mouse assessed as reduction in tumor growth at 0.008 to 0.016 mmol/Kg, iv administered at 3 days intervals for 21 days; format: functional, organism-based; conditions: dose 0.008-0.016 mmol/Kg, time 21.0 day
SW480 [20] = assay: Anticancer activity against human SW480 cells assessed as inhibition of cell growth by MTT assay; format: functional, cell-based
HCT-116 [21] = assay: Antimigratory activity against human HCT-116 cells assessed as inhibition of cell migration by wound healing assay relative to control; format: functional; parameters: scale not given: the % may be the effect or the level left
[22] = Toxicity in nude mouse xenografted with human SW480 cells assessed as effect on MCH level at 0.016 mmol/Kg, iv administered at 3 days intervals for 21 days by routine blood test; format: organism-based; conditions: in vivo, 504 h, time 21 day
[23] = Cytotoxicity against HEK293T cells assessed as inhibition of cell growth by MTT assay; format: toxicity, cell-based, HEK-293T; conditions: human
HCT-116 [24] = assay: Induction of apoptosis in human HCT-116 cells assessed as late apoptotic cells at 25 uM by Annexin V-FITC staining based flow cytometry (reference value: 3.51 %); format: functional
[25] = Selectivity index, ratio of IC50 for cytotoxicity against HEK293T cells to IC50 for anticancer activity against human HCT-116 cells; format: toxicity, cell-based; conditions: HEK293T cells and HCT-116 cells, read-out: Ratio IC50
[26] = Toxicity in nude mouse xenografted with human SW480 cells assessed as effect on blood urea nitrogen level at 0.016 mmol/Kg, iv administered at 3 days intervals for 21 days; format: organism-based; conditions: in vivo, 504 h, time 21 day
[27] = Toxicity in nude mouse xenografted with human SW480 cells assessed as effect on total protein level at 0.016 mmol/Kg, iv administered at 3 days intervals for 21 days; format: organism-based; conditions: in vivo, 504 h, time 21 day
[28] = Toxicity in nude mouse xenografted with human SW480 cells assessed as effect on albumin level at 0.016 mmol/Kg, iv administered at 3 days intervals for 21 days; format: organism-based; conditions: in vivo, 504 h, time 21 day
[29] = Toxicity in nude mouse xenografted with human SW480 cells assessed as effect on cholesterol level at 0.016 mmol/Kg, iv administered at 3 days intervals for 21 days; format: organism-based; conditions: in vivo, 504 h, time 21 day
[30] = Solubility of the compound in water; format: physicochemical
[31] = Toxicity in nude mouse xenografted with human SW480 cells assessed as effect on body weight at 0.008 to 0.016 mmol/Kg, iv administered at 3 days intervals for 21 days; format: organism-based; conditions: in vivo, 504 h, dose 0.008-0.016 mmol/Kg, time 21 day
[32] = Cytotoxicity against human L02 cells assessed as inhibition of cell growth by MTT assay; format: toxicity, cell-based
SW480 [33] = assay: Induction of apoptosis in human SW480 cells assessed as appearance of paired apoptotic vesicles around the nucleus by Hoechst 33258 staining based analysis; format: functional, cell-based
SW480 [34] = assay: Induction of apoptosis in human SW480 cells assessed as appearance of wrinkled and round cells by Hoechst 33258 staining based analysis; format: functional, cell-based
SW480 [35] = assay: Antitumor activity against human SW480 cells xenografted in mouse assessed as reduction in tumor weight at 0.008 to 0.016 mmol/Kg, iv administered at 3 days intervals for 21 days; format: functional, organism-based; conditions: dose 0.008-0.016 mmol/Kg, time 21.0 day
SW480 [36] = assay: Induction of apoptosis in human SW480 cells assessed as blue chromatin condensation by Hoechst 33258 staining based analysis; format: functional, cell-based
[37] = Selectivity index, ratio of IC50 for cytotoxicity against HEK293T cells to IC50 for anticancer activity against human SW480 cells; format: toxicity, cell-based; conditions: HEK293T cells and SW480 cells, read-out: Ratio IC50
HCT-116 [38] = assay: Induction of apoptosis in human HCT-116 cells assessed as viable cells at 25 uM by Annexin V-FITC staining based flow cytometry (reference value: 94.3%); format: functional; conditions: read-out: Activity
[39] = Toxicity in nude mouse xenografted with human SW480 cells assessed as effect on creatinine level at 0.016 mmol/Kg, iv administered at 3 days intervals for 21 days; format: organism-based; conditions: in vivo, 504 h, time 21 day
[40] = Toxicity in nude mouse xenografted with human SW480 cells assessed as effect on alanine transaminase level at 0.016 mmol/Kg, iv administered at 3 days intervals for 21 days; format: organism-based; conditions: in vivo, 504 h, time 21 day
SW480 [41] = assay: Induction of apoptosis in human SW480 cells assessed as viable cells at 25 uM by Annexin V-FITC staining based flow cytometry (reference value: 89.3 %); format: functional; conditions: read-out: Activity
SW480 [42] = assay: Inhibition of cell invasion in human SW480 cells by Boyden chamber invasion assay; format: functional, cell-based; conditions: dose 5-50 µM
HCT-116 [43] = assay: Induction of apoptosis in human HCT-116 cells assessed as early apoptotic cells at 25 uM by Annexin V-FITC staining based flow cytometry (reference value: 1.46 %); format: functional
[44] = Solubility of the compound in 0.9% NaCl solution; format: physicochemical
[45] = Solubility of the compound in Tween 80 solution; format: physicochemical
[46] = Toxicity in iv dosed nude mouse xenografted with human SW480 cells assessed as effect on body weight administered at 3 days intervals for 21 days; format: organism-based; conditions: in vivo, 504 h, time 21 day

Q: What does the source list for `CCc1c2c(nc3ccc(OC(=O)NCCOCc4cn(CCO[C@H]5O[C@@H](CO)[C@H](O)[C@@H](O)[C@@H]5O)nn4)cc13)-c1cc3c(c(=O)n1C2)COC(=O)[C@]3(O)CC`?
A: Activity (SW480 [1]): 6%; Activity [2]: Non-Toxic; Activity [3]: Non-Toxic; Activity [4]: Non-Toxic; inhibition (HCT-116 [5]): Dose-Dependent Effect; Activity (SW480 [6]): 38.7%; Activity (HCT-116 [7]): Active; Activity (HCT-116 [8]): 2.2%; IC50 (HCT-116 [9]): 0.27 µM; Activity (HCT-116 [10]): Active; Activity [11]: Non-Toxic; Activity (SW480 [12]): 5.33%; Activity (SW480 [13]): Dose-Dependent Effect; Activity (SW480 [14]): 26.7%; Activity [15]: Non-Toxic; Activity (HCT-116 [16]): Active; selectivity ratio [17]: 9.62; selectivity ratio [18]: 5.7; Activity (SW480 [19]): Active; IC50 (SW480 [20]): 0.16 µM; Activity (HCT-116 [21]): 20.1%; Activity [22]: Non-Toxic; IC50 [23]: 19.8 µM; Activity (HCT-116 [24]): 14.1%; selectivity ratio [25]: 73.5; Activity [26]: Non-Toxic; Activity [27]: Non-Toxic; Activity [28]: Non-Toxic; Activity [29]: Non-Toxic; solubility [30]: 2530 µg/mL (≈ 3300 µM); Activity [31]: Non-Toxic; IC50 [32]: 1.54 µM; Activity (SW480 [33]): Active; Activity (SW480 [34]): Active; Activity (SW480 [35]): Active; Activity (SW480 [36]): Active; selectivity ratio [37]: 124; viability at 25 µM (HCT-116 [38]): 80.1%; Activity [39]: Non-Toxic; Activity [40]: Non-Toxic; viability at 25 µM (SW480 [41]): 50%; inhibition (SW480 [42]): Dose-Dependent Effect; Activity (HCT-116 [43]): 3.67%

Q: Which solubility [44] does the source give for `CCc1c2c(nc3ccc(O)cc13)-c1cc3c(c(=O)n1C2)COC(=O)[C@]3(O)CC` [7-ETHYL-10-HYDROXYCAMPTOTHECIN] here?
A: The solubility was 17.6 µg/mL (≈ 45 µM).

Q: What about the solubility [30] of the same compound?
A: The solubility was 7.74 µg/mL (≈ 19.7 µM).

Q: And the solubility [45]?
A: Its solubility is 77.4 µg/mL (≈ 197 µM).

Q: Which results are given for `CCc1c2c(nc3ccc(OC(=O)N4CCC(N5CCCCC5)CC4)cc13)-c1cc3c(c(=O)n1C2)COC(=O)[C@]3(O)CC` [IRINOTECAN]?
A: Activity (SW480 [6]): 10.7%; Activity (HCT-116 [8]): 0.256%; IC50 (HCT-116 [9]): 14.2 µM; Activity (SW480 [12]): 0.871%; Activity (SW480 [14]): 74.5%; Activity [46]: Non-Toxic; solubility [44]: 1200 µg/mL (≈ 2050 µM); IC50 (SW480 [20]): 11.2 µM; IC50 [23]: 19.8 µM; Activity (HCT-116 [24]): 6.15%; solubility [30]: 5590 µg/mL (≈ 9530 µM); IC50 [32]: 22.2 µM; viability at 25 µM (HCT-116 [38]): 92.5%; viability at 25 µM (SW480 [41]): 85%; Activity (HCT-116 [43]): 1.51%
